Laboratory results published in patent publication US20180117052A1, “COMBINATION THERAPIES FOR TREATING CANCERS” (Gilead Scienes, Inc., priority 2015, published 2018).

Tested on: CD5+/CD19+ cells of PBMCs from primary chronic lymphocytic leukemia (CLL) patients
Experiment: Human CLL apoptosis assay (AnnexinV+ cells by flow cytometry)
Assay type: cell-based
Settings: no HS-5 co-culture
Description: Peripheral blood mononuclear cells (PBMCs) were isolated from primary chronic lymphocytic leukemia (CLL) patients and cultured for 3-5 hours in Lymphocyte Growth Medium (LGM, RPMI 1640, 1 mM Sodium Pyruvate, 10 mM HEPES, pH 7.4, 100 U/mL Penicillin/100 μg/mL Streptomycin, 55 μM β-Mercaptoethanl, 2 mM GlutaMAX, and 10% FBS) at 37° C. with 5% CO2. Cells were then centrifuged at room temperature for 10 minutes and resuspended in an appropriate volume of LGM for plating (maximum cell density=3.12×10^6/ml). Final assay wells were set up in U-bottom 96-well tissue culture plates with HS-5 co-culture (plates were coated with 3×10^4 HS-5 cells in 100 μl overnight at 37° C. prior to the assay) or no co-culture.
Cell suspensions (80 μL, 2.5×10^5-9.4×10^4) were added to the plate and incubated for 1 hour prior to stimulation with αIgM/αIgG (7.8 μg/well) and αCD40 (4 μg/well). Cells were incubated with compounds for about 66 hours at 37° C. After incubation, the cells were transferred to deeper plates and washed once with 500 μL of 1× PBS^+/+. Cells were resuspended in Invitrogen's aqua Live/Dead reagent according to manufacturer's directions and incubated 30 minutes on ice. Aqua Live/Dead was quenched with an equal volume of PBS^+/+ with 4% FBS (FACS buffer). Cells were centrifuged and labeled with αCD5-PE, αCD19-BV421 and AnnexinV-APC in a total volume of 85 μL and incubated 30 minutes on ice. After labeling, cells were rinsed twice in FACS buffer and then fixed with BD Fixation buffer for 30 minutes on ice. Cells were rinsed twice with FACS buffer and analyzed.
For the apoptosis analysis, flow cytometric sampling of 5000-20,000 total events were collected on a BD FACS Canto II instrument using a high throughput screen (HTS) autosampler for analysis of apoptosis. CD5^+/CD19^+ cells were identified and subsequently gated for AnnexinV^+/LiveDead and AnnexinV^+/LiveDead^+ populations.
Flow cytometric data were extracted to a flow cytometry standard (fcs) file. Average percentages of AnnexinV^+ cells were determined for the positive control and negative wells (no compound). The percentage of AnnexinV^+ cells represented the percentage or levels of apoptosis. Similar results were obtained for CLL cells with HS-5 co-culture.

c1cn2cc(-c3ccc4cn[nH]c4c3)nc(Nc3ccc(N4CCOCC4)cc3)c2n1 [Compound A1, 6-(1H-indazol-6-yl)-N-(4-morpholinophenyl)imidazo[1,2-a]pyrazin-8-amine]
Percentage of the AnnexinV^+ cells (Sample 1, 30 nM Compound A1, 0 nM Compound B1): 12% | Percentage of the AnnexinV^+ cells (Sample 1, 100 nM Compound A1, 0 nM Compound B1): 12% | Percentage of the AnnexinV^+ cells (Sample 1, 300 nM Compound A1, 0 nM Compound B1): 16% | Percentage of the AnnexinV^+ cells (Sample 2, 30 nM Compound A1, 0 nM Compound B1): 9% | Percentage of the AnnexinV^+ cells (Sample 2, 100 nM Compound A1, 0 nM Compound B1): 12% | Percentage of the AnnexinV^+ cells (Sample 2, 300 nM Compound A1, 0 nM Compound B1): 20% | Percentage of the AnnexinV^+ cells (Sample 3, 30 nM Compound A1, 0 nM Compound B1): 13% | Percentage of the AnnexinV^+ cells (Sample 3, 100 nM Compound A1, 0 nM Compound B1): 15% | Percentage of the AnnexinV^+ cells (Sample 3, 300 nM Compound A1, 0 nM Compound B1): 18%

CC1(C)CCC(CN2CCN(c3ccc(C(=O)NS(=O)(=O)c4ccc(NCC5CCOCC5)c([N+](=O)[O-])c4)c(Oc4cnc5[nH]ccc5c4)c3)CC2)=C(c2ccc(Cl)cc2)C1 [Compound B1, (4-(4-{[2-(4-chlorophenyl)-4,4-dimethylcyclohex-1-en-1-yl]methyl}piperazin-1-yl)-N-({3-nitro-4-[(tetrahydro-2H-pyran-4-yl-methyl)amino]phenyl}sulfonyl)-2-(1H-pyrrolo[2,3-b]pyridin-5-yl-oxy)benzamide)]
Percentage of the AnnexinV^+ cells (Sample 1, 0 nM Compound A1, 0.8 nM Compound B1): 13% | Percentage of the AnnexinV^+ cells (Sample 1, 0 nM Compound A1, 1.6 nM Compound B1): 15% | Percentage of the AnnexinV^+ cells (Sample 1, 0 nM Compound A1, 3.1 nM Compound B1): 15% | Percentage of the AnnexinV^+ cells (Sample 1, 0 nM Compound A1, 6.3 nM Compound B1): 16% | Percentage of the AnnexinV^+ cells (Sample 1, 0 nM Compound A1, 12.5 nM Compound B1): 19% | Percentage of the AnnexinV^+ cells (Sample 1, 0 nM Compound A1, 25 nM Compound B1): 24% | Percentage of the AnnexinV^+ cells (Sample 1, 0 nM Compound A1, 50 nM Compound B1): 31% | Percentage of the AnnexinV^+ cells (Sample 1, 0 nM Compound A1, 100 nM Compound B1): 36% | Percentage of the AnnexinV^+ cells (Sample 1, 0 nM Compound A1, 200 nM Compound B1): 46% | Percentage of the AnnexinV^+ cells (Sample 2, 0 nM Compound A1, 0.8 nM Compound B1): 10% | Percentage of the AnnexinV^+ cells (Sample 2, 0 nM Compound A1, 1.6 nM Compound B1): 18% | Percentage of the AnnexinV^+ cells (Sample 2, 0 nM Compound A1, 3.1 nM Compound B1): 35% | Percentage of the AnnexinV^+ cells (Sample 2, 0 nM Compound A1, 6.3 nM Compound B1): 55% | Percentage of the AnnexinV^+ cells (Sample 2, 0 nM Compound A1, 12.5 nM Compound B1): 76% | Percentage of the AnnexinV^+ cells (Sample 2, 0 nM Compound A1, 25 nM Compound B1): 89% | Percentage of the AnnexinV^+ cells (Sample 2, 0 nM Compound A1, 50 nM Compound B1): 93% | Percentage of the AnnexinV^+ cells (Sample 2, 0 nM Compound A1, 100 nM Compound B1): 95% | Percentage of the AnnexinV^+ cells (Sample 2, 0 nM Compound A1, 200 nM Compound B1): 97% | Percentage of the AnnexinV^+ cells (Sample 3, 0 nM Compound A1, 0.8 nM Compound B1): 16% | Percentage of the AnnexinV^+ cells (Sample 3, 0 nM Compound A1, 1.6 nM Compound B1): 21% | Percentage of the AnnexinV^+ cells (Sample 3, 0 nM Compound A1, 3.1 nM Compound B1): 33% | Percentage of the AnnexinV^+ cells (Sample 3, 0 nM Compound A1, 6.3 nM Compound B1): 50% | Percentage of the AnnexinV^+ cells (Sample 3, 0 nM Compound A1, 12.5 nM Compound B1): 69% | Percentage of the AnnexinV^+ cells (Sample 3, 0 nM Compound A1, 25 nM Compound B1): 89% | Percentage of the AnnexinV^+ cells (Sample 3, 0 nM Compound A1, 50 nM Compound B1): 97% | Percentage of the AnnexinV^+ cells (Sample 3, 0 nM Compound A1, 100 nM Compound B1): 99% | Percentage of the AnnexinV^+ cells (Sample 3, 0 nM Compound A1, 200 nM Compound B1): 100%
